According to patent US4248863A, “Antibiotics saframycins A, B, C, D and E and process for producing the same” (priority 1977, dated 1981):
Values after ≈ are worked out from the molar mass of the structure shown.

Assays:
[1] = system: Bacillus subtilis; test: Antimicrobial spectrum, MIC (Table 4); format: cell-based; conditions: Bacillus subtilis; 1% glucose nutrient agar, 37° C., 24 or 48 hours; read-out: MIC
[2] = system: Corynebacterium dephtheriae; test: Antimicrobial spectrum, MIC (Table 4); format: cell-based; conditions: Corynebacterium; 1% glucose nutrient agar, 37° C., 24 or 48 hours; read-out: MIC
[3] = system: Salmonella typhimurium; test: Antimicrobial spectrum, MIC (Table 4); format: cell-based; conditions: Salmonella enterica, TYPHIMURIUM; 1% glucose nutrient agar, 37° C., 24 or 48 hours; read-out: MIC
[4] = system: Aspergillus oryzae; test: Antimicrobial spectrum, MIC (Table 4); conditions: Aspergillus oryzae, 48 h
[5] = system: Staphylococcus aureus Smith; test: Antimicrobial spectrum, MIC (Table 4); format: cell-based; conditions: Staphylococcus aureus; 1% glucose nutrient agar, 37° C., 24 or 48 hours; read-out: MIC
[6] = system: uterine cervical carcinoma; test: Effect against human tumors heterotransplanted to nude mice; format: in vivo, human tumor in nude mice; conditions: human tumor heterotransplanted to nude mice
[7] = system: Nocardia asteroides; test: Antimicrobial spectrum, MIC (Table 4); format: cell-based; conditions: Nocardia asteroides; 37° C., 24 or 48 hours; read-out: MIC
[8] = system: Aspergillus niger; test: Antimicrobial spectrum, MIC (Table 4); conditions: Aspergillus niger, 48 h
[9] = system: stomach carcinoma; test: Effect against human tumors heterotransplanted to nude mice; format: in vivo, human tumor in nude mice; conditions: human tumor heterotransplanted to nude mice
[10] = system: Bacillus cereus; test: Antimicrobial spectrum, MIC (Table 4); format: cell-based; conditions: Bacillus cereus; 1% glucose nutrient agar, 37° C., 24 or 48 hours; read-out: MIC
[11] = system: mouse lymphocytic leukemia L1210; test: Effect on mouse lymphocytic leukemia L1210 in vivo; conditions: DBF1 mice, 1×10^5 cells intraperitoneal; 1.5 mg/kg daily for 2 days intraperitoneal, started 3 hours after implantation
Procedure: When DDY mice were implanted with 1×10^5 cells of Ehrlich ascites tumor and daily intraperitoneal treatment of saframycin A at a dose of 0.5 mg/kg was initiated 24 hours after tumor implantation for 4 days, 30% of mice were cured and survived more than 30 days. With a dose of 1.0 mg/kg, 60% of mice was cured. The effects of saframycin A by intraperitoneal treatment on mouse lymphocytic leukemia L1210 and lymphoid leukemia P388 were studied with DBF1 mice. […] With P388 tumor, the inoculum size of 1×10^6 cells was employed and the treatment was initiated after 24 hours. Saframycin A at a daily dose of 0.75 mg/kg for 10 days produced T/C of 219%. The effect of saframycin A was then studied against human tumors, two lines of uterine cervical carcinoma, melanoma, oat cell carcinoma and stomach carcinoma, heterotransplanted to nude mice.

[12] = system: Staphylococcus salivarius; test: Antimicrobial spectrum, MIC (Table 4); format: cell-based; conditions: Staphylococcus; 1% glucose nutrient agar, 37° C., 24 or 48 hours; read-out: MIC
[13] = system: Streptococcus pyogenes; test: Antimicrobial spectrum, MIC (Table 4); format: cell-based; conditions: Streptococcus pyogenes; blood agar, 37° C., 24 or 48 hours; read-out: MIC
[14] = system: Saccharomyces cerevisiae; test: Antimicrobial spectrum, MIC (Table 4); conditions: Saccharomyces cerevisiae, 48 h
[15] = system: Streptococcus faecalis; test: Antimicrobial spectrum, MIC (Table 4); format: cell-based; conditions: Enterococcus faecalis; 1% glucose nutrient agar, 37° C., 24 or 48 hours; read-out: MIC
[16] = system: Serratia marcescens; test: Antimicrobial spectrum, MIC (Table 4); format: cell-based; conditions: Serratia marcescens; 1% glucose nutrient agar, 37° C., 24 or 48 hours; read-out: MIC
[17] = Toxicity in mice; conditions: mouse, in vivo
[18] = system: Trichophyton mentagrophytes; test: Antimicrobial spectrum, MIC (Table 4); conditions: Trichophyton mentagrophytes, 72 h
[19] = system: Ehrlich ascites tumor; test: Activity against Ehrlich ascites tumor in DDY mice; format: in vivo; conditions: 1×10^5 cells, initiated 24 hours after implantation, 4 days
[20] = system: Staphylococcus albus; test: Antimicrobial spectrum, MIC (Table 4); format: cell-based; conditions: Staphylococcus; 1% glucose nutrient agar, 37° C., 24 or 48 hours; read-out: MIC
[21] = system: Mycobacterium phlei; test: Antimicrobial spectrum, MIC (Table 4); format: cell-based; conditions: Mycolicibacterium phlei; 3% glycerol nutrient agar for acid-fast bacteria, 37° C., 24 or 48 hours; read-out: MIC
[22] = system: Candida albicans; test: Antimicrobial spectrum, MIC (Table 4); conditions: Candida albicans, 48 h
[23] = system: Mycobacterium avium; test: Antimicrobial spectrum, MIC (Table 4); format: cell-based; conditions: Mycobacterium avium; 3% glycerol nutrient agar for acid-fast bacteria, 37° C., 24 or 48 hours; read-out: MIC
[24] = system: Brucella abortus; test: microbe, parasite or virus in culture; format: cell-based; conditions: Brucella abortus
[25] = system: Rhodotorula glutinis; test: Antimicrobial spectrum, MIC (Table 4); conditions: Rhodotorula glutinis, 48 h
[26] = system: Shigella dysenteriae Shiga; test: microbe, parasite or virus in culture; format: cell-based; conditions: Shigella dysenteriae
[27] = system: Staphylococcus aureus 209P; test: Antimicrobial spectrum, MIC (Table 4); format: cell-based; conditions: Staphylococcus aureus, 209P; 1% glucose nutrient agar, 37° C., 24 or 48 hours; read-out: MIC
[28] = system: Mucor mucedo; test: Antimicrobial spectrum, MIC (Table 4); conditions: Mucor mucedo, 48 h
[29] = system: Corynebacterium xerosis; test: Antimicrobial spectrum, MIC (Table 4); format: cell-based; conditions: Corynebacterium xerosis; 1% glucose nutrient agar, 37° C., 24 or 48 hours; read-out: MIC
[30] = system: Micrococcus luteus; test: Antimicrobial spectrum, MIC (Table 4); format: cell-based; conditions: Micrococcus luteus; 1% glucose nutrient agar, 37° C., 24 or 48 hours; read-out: MIC
[31] = system: Escherichia coli; test: Antimicrobial spectrum, MIC (Table 4); format: cell-based; conditions: Escherichia coli; 1% glucose nutrient agar, 37° C., 24 or 48 hours; read-out: MIC
[32] = system: Mycobacterium sp. 607; test: Antimicrobial spectrum, MIC (Table 4); format: cell-based; conditions: Mycobacterium, SP.607; 3% glycerol nutrient agar for acid-fast bacteria, 37° C., 24 or 48 hours; read-out: MIC
[33] = system: Klebsiella pneumoniae; test: Antimicrobial spectrum, MIC (Table 4); format: cell-based; conditions: Klebsiella pneumoniae; 1% glucose nutrient agar, 37° C., 24 or 48 hours; read-out: MIC
[34] = system: Penicillium glaucum; test: Antimicrobial spectrum, MIC (Table 4); conditions: Penicillium, 48 h
[35] = system: Streptococcus pyogenes 090R; test: Antimicrobial spectrum, MIC (Table 4); format: cell-based; conditions: Streptococcus pyogenes, 090R; blood agar, 37° C., 24 or 48 hours; read-out: MIC
[36] = system: Staphylococcus citreus; test: Antimicrobial spectrum, MIC (Table 4); format: cell-based; conditions: Staphylococcus; 1% glucose nutrient agar, 37° C., 24 or 48 hours; read-out: MIC
[37] = system: Pseudomonas aeruginosa; test: Antimicrobial spectrum, MIC (Table 4); format: cell-based; conditions: Pseudomonas aeruginosa; 1% glucose nutrient agar, 37° C., 24 or 48 hours; read-out: MIC

Work on `COC1=C(C)C(=O)C2=C(C1=O)C1C3CC4=C(C(=O)C(OC)=C(C)C4=O)C(CNC(=O)C(C)=O)N3C(C#N)C(C2)N1C` (stereo not drawn) [saframycin A] yielded an MIC [1] of 0.1 µg/mL (≈ 0.178 µM), an MIC [2] of less than 3 ng/mL and an MIC [3] of 100 µg/mL (≈ 178 µM). For the same compound, the MIC [4] was greater than 100 µg/mL, the MIC [5] was 0.05 µg/mL (≈ 0.0889 µM) and the “activity against cervical carcinoma” value [6] was “selectively active on cervical carcinoma and stomach carcinoma producing the inhibition of tumor growth and significant histological changes in tumor tissue”. The MIC [7] was 6.25 µg/mL (≈ 11.1 µM), the MIC [8] was greater than 100 µg/mL and the “activity against stomach carcinoma” value [9] was “selectively active on cervical carcinoma and stomach carcinoma producing the inhibition of tumor growth and significant histological changes in tumor tissue”. The MIC [10] was 12.5 µg/mL (≈ 22.2 µM), the “T/C (survival period of treated group over survival period of control group)” value [11] was 183% and the MIC [12] was 6.25 µg/mL (≈ 11.1 µM). For the same compound, the MIC [13] was 0.78 µg/mL (≈ 1.39 µM), the MIC [14] was greater than 100 µg/mL and the MIC [15] was 6.25 µg/mL (≈ 11.1 µM). It also gave an MIC [16] greater than 100 µg/mL, an LD50 ([17]; ip) of 40 mg/kg and an LD50 ([17]; iv) of 12 mg/kg. The MIC [18] was greater than 100 µg/mL, the “mice cured and survived more than 30 days” value ([19]; 0.5 mg/kg daily intraperitoneal) was 30% and the mice cured ([19]; 1.0 mg/kg daily intraperitoneal) was 60%. It also gave an MIC [20] of 0.1 µg/mL (≈ 0.178 µM), an MIC [21] of 25 µg/mL (≈ 44.4 µM) and an MIC [22] greater than 100 µg/mL. For the same compound, the MIC [23] was 12.5 µg/mL (≈ 22.2 µM), the MIC [24] was 6.25 µg/mL (≈ 11.1 µM) and the MIC [25] was greater than 100 µg/mL. The MIC [26] was 25 µg/mL (≈ 44.4 µM), the MIC [27] was 0.1 µg/mL (≈ 0.178 µM) and the MIC [28] was greater than 100 µg/mL. For the same compound, the MIC [29] was less than 3 ng/mL, the MIC [30] was 0.05 µg/mL (≈ 0.0889 µM) and the MIC [31] was 50 µg/mL (≈ 88.9 µM). For the same compound, the MIC [32] was 12.5 µg/mL (≈ 22.2 µM), the MIC [33] was 6.25 µg/mL (≈ 11.1 µM) and the MIC [34] was 50 µg/mL (≈ 88.9 µM). It also gave an MIC [35] of 6.25 µg/mL (≈ 11.1 µM), an MIC [36] of 0.1 µg/mL (≈ 0.178 µM) and an MIC [37] greater than 100 µg/mL.
